These molecules were tested against T1, CCR2 (Homo sapiens, UniProt P41597) (assay: Binding assay: inhibition of 125I-MCP-1 binding to THP-1 cells). Conditions: not given.
T1 sequence (P41597 1-360 isoform P41597-2): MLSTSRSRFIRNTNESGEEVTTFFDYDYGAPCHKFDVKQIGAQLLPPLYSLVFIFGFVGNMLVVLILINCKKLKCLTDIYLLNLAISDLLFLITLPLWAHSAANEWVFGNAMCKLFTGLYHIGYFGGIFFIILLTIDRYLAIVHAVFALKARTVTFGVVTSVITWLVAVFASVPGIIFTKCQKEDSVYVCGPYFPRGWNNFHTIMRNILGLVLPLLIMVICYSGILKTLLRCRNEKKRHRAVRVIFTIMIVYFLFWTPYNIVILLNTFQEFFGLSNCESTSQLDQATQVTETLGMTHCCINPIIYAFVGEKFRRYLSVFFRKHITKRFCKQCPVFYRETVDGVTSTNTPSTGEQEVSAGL
Parameters: CCR2 is also expressed in the human monocytic cell line THP-1; endogenous in cells; host or cells: THP-1 (human monocytic cell line), whole cells
Method: Antagonism of the CCR2 receptor is determined by a binding assay using the human monocytic cell line THP-1. Cells are suspended in assay buffer (RPMI+1% BSA+25 mM HEPES) at 3×10^6 cells/ml and an aliquot (180 μl) added to a 0.5 ml siliconized Eppendorf tube. […] After incubation for 1 hr at room temperature, the cell suspension is centrifuged through oil and the cell pellets counted to quantitate cell-bound ligand. Nonspecific (NS) binding of radioligand is determined by the addition of 100 nM cold MCP-1. Control binding is determined by the addition of buffer without compound.

| Compound | IC50 [µM] |
| --- | --- |
| CCCC(CCC)C1C(C(C)=O)=C(O)C(=O)N1c1ccc(C)cc1 (racemic) [Compound 39, 4-acetyl-3-hydroxy-1-(4-methylphenyl)-5-(1-propylbutyl)-1,5-dihydro-2H-pyrrol-2-one] | ≤ 5 |

Same assay, conditions: THP-1 cells, 0.1 nM 125I-MCP-1, 1 hr at room temperature; read-out: Inhibition of 125I-MCP-1 binding to THP-1 cells, IC50

| IC50 [µM] | Compound |
| --- | --- |
| ≤ 5 | CC(=O)C1=C(O)C(=O)N(c2ccc(F)c(C)c2)C1C1CCCCC1 (racemic) [Compound 64, 4-acetyl-5-cyclohexyl-1-(4-fluoro-3-methylphenyl)-3-hydroxy-1,5-dihydro-2H-pyrrol-2-one] |
| ≤ 5 | CC(=O)C1=C(O)C(=O)N(c2cccc(Cl)c2)C1C1CCCCC1 (racemic) [Compound 43, 4-acetyl-1-(3-chlorophenyl)-5-cyclohexyl-3-hydroxy-1,5-dihydro-2H-pyrrol-2-one] |
| ≤ 5 | CC(=O)C1=C(O)C(=O)N(c2ccc(Cl)cc2)C1C1CCCC1 (racemic) [Compound 118, 4-acetyl-1-(4-chlorophenyl)-5-cyclopentyl-3-hydroxy-1,5-dihydro-2H-pyrrol-2-one] |
| ≤ 5 | CC(=O)C1=C(O)C(=O)N(c2ccc3c(c2)CCC3)C1C1CCCCC1 (racemic) [Compound 63, 4-acetyl-5-cyclohexyl-1-(2,3-dihydro-1H-inden-5-yl)-3-hydroxy-1,5-dihydro-2H-pyrrol-2-one] |
| ≤ 5 | CC(=O)C1=C(O)C(=O)N(c2ccc(C)cc2)C1C1CCCC1 (racemic) [Compound 56, 4-acetyl-5-cyclopentyl-3-hydroxy-1-(4-methylphenyl)-1,5-dihydro-2H-pyrrol-2-one] |
| ≤ 5 | CC(=O)C1=C(O)C(=O)N(Cc2ccccc2)C1C1CCCCC1 (racemic) [Compound 7, 4-acetyl-1-benzyl-5-cyclohexyl-3-hydroxy-1,5-dihydro-2H-pyrrol-2-one] |
| ≤ 5 | CC(=O)C1=C(O)C(=O)N(c2ccc(Cl)cc2)C1C1CCC(C)CC1 (racemic) [Compound 150, 4-acetyl-1-(4-chlorophenyl)-3-hydroxy-5-(4-methylcyclohexyl)-1,5-dihydro-2H-pyrrol-2-one] |
| ≤ 5 | CC(=O)C1=C(O)C(=O)N(c2ccc(Cl)c(C(F)(F)F)c2)C1C1CCCCC1 (racemic) [Compound 55, 4-acetyl-1-[4-chloro-3-(trifluoromethyl)phenyl]-5-cyclohexyl-3-hydroxy-1,5-dihydro-2H-pyrrol-2-one] |
| ≤ 5 | CC(=O)C1=C(S)C(=O)N(c2ccc(Cl)cc2)C1C1CCCCC1 (racemic) [Compound 157, 4-acetyl-1-(4-chlorophenyl)-5-cyclohexyl-3-mercapto-1,5-dihydro-2H-pyrrol-2-one] |
| ≤ 5 | CC(=O)C1=C(O)C(=O)N(c2ccc(C(F)(F)F)cc2)C1C1CCCCC1 (racemic) [Compound 49, 4-acetyl-5-cyclohexyl-3-hydroxy-1-[4-(trifluoromethyl)phenyl]-1,5-dihydro-2H-pyrrol-2-one] |
| ≤ 5 | CC(=O)C1=C(O)C(=O)N(c2ccc(C)cc2F)C1C1CCCCC1 (racemic) [Compound 54, 4-acetyl-5-cyclohexyl-1-(2-fluoro-4-methylphenyl)-3-hydroxy-1,5-dihydro-2H-pyrrol-2-one] |
| ≤ 5 | CC(=O)C1=C(O)C(=O)N(c2c(F)cc(Cl)cc2F)[C@H]1C1CCCCC1 (stereo in doubt) [Compound 147, (S)-4-acetyl-1-(4-chloro-2,6-difluorophenyl)-5-cyclohexyl-3-hydroxy-1,5-dihydro-2H-pyrrol-2-one] |
| ≤ 5 | CC(=O)C1=C(O)C(=O)N(c2ccc(Cl)cc2)C1CC1CCCC1 (racemic) [Compound 134, 4-acetyl-1-(4-chlorophenyl)-5-(cyclopentylmethyl)-3-hydroxy-1,5-dihydro-2H-pyrrol-2-one] |
| ≤ 5 | CC(=O)C1=C(O)C(=O)N(c2ccc(Cl)cc2)C1C1CC2C=CC1C2 (stereo not shown) [Compound 121, 4-acetyl-5-bicyclo[2.2.1]hept-5-en-2-yl-1-(4-chlorophenyl)-3-hydroxy-1,5-dihydro-2H-pyrrol-2-one] |
| ≤ 5 | CC(=O)C1=C(O)C(=O)N(c2ccc(Cl)cc2F)C1C1CCCC1 (racemic) [Compound 119, 4-acetyl-1-(4-chloro-2-fluorophenyl)-5-cyclopentyl-3-hydroxy-1,5-dihydro-2H-pyrrol-2-one] |
| ≤ 5 | CC(=O)C1=C(O)C(=O)N(Cc2ccccc2)C1c1ccco1 (racemic) [Compound 8, 4-acetyl-1-benzyl-5-(2-furyl)-3-hydroxy-1,5-dihydro-2H-pyrrol-2-one] |
| ≤ 5 | CC(=O)C1=C(O)C(=O)N(c2c(F)cc(Br)cc2F)C1C1CCCCC1 (racemic) [Compound 154, 4-acetyl-1-(4-bromo-2,6-difluorophenyl)-5-cyclohexyl-3-hydroxy-1,5-dihydro-2H-pyrrol-2-one] |
| ≤ 5 | CC(=O)C1=C(O)C(=O)N(c2cccc(C)c2)C1C1CCCCC1 (racemic) [Compound 16, 4-acetyl-5-cyclohexyl-3-hydroxy-1-(3-methylphenyl)-1,5-dihydro-2H-pyrrol-2-one] |
| ≤ 5 | CC(=O)C1=C(O)C(=O)N(c2ccc(Br)cc2)C1C1CCCCC1 (racemic) [Compound 17, 4-acetyl-1-(4-bromophenyl)-5-cyclohexyl-3-hydroxy-1,5-dihydro-2H-pyrrol-2-one] |
| ≤ 5 | CC(=O)C1=C(O)C(=O)N(c2ccc(Cl)cn2)C1C1CCCCC1 (racemic) [Compound 172, 4-acetyl-1-(5-chloro-2-pyridinyl)-5-cyclohexyl-3-hydroxy-1,5-dihydro-2H-pyrrol-2-one] |
| ≤ 5 | COC1CCC(C2C(C(C)=O)=C(O)C(=O)N2c2ccc(Cl)cc2)CC1 (racemic) [Compound 132, 4-acetyl-1-(4-chlorophenyl)-3-hydroxy-5-(4-methoxycyclohexyl)-1,5-dihydro-2H-pyrrol-2-one] |
| ≤ 5 | C=C1CCC(C2C(C(C)=O)=C(O)C(=O)N2c2ccc(Cl)cc2F)CC1 (racemic) [Compound 153, 4-acetyl-1-(4-chloro-2-fluorophenyl)-3-hydroxy-5-(4-methylenecyclohexyl)-1,5-dihydro-2H-pyrrol-2-one] |
| ≤ 5 | CC(=O)C1=C(O)C(=O)N(c2ccc(Cl)cc2)C1C1CC(C)(C)CC(C)(C)C1 (racemic) [Compound 145, 4-acetyl-1-(4-chlorophenyl)-3-hydroxy-5-(3,3,5,5-tetramethylcyclohexyl)-1,5-dihydro-2H-pyrrol-2-one] |
| ≤ 5 | CC(=O)C1=C(O)C(=O)N(c2c(F)cc(Cl)cc2F)[C@@H]1C1CCCCC1 (stereo in doubt) [Compound 148, (R)-4-acetyl-1-(4-chloro-2,6-difluorophenyl)-5-cyclohexyl-3-hydroxy-1,5-dihydro-2H-pyrrol-2-one] |
| ≤ 5 | CC(=O)C1=C(O)C(=O)N(c2ccc(C)cc2)C1c1ccc(Br)cc1 (racemic) [Compound 20, 4-acetyl-5-(4-bromophenyl)-3-hydroxy-1-(4-methylphenyl)-1,5-dihydro-2H-pyrrol-2-one] |
| ≤ 5 | CCc1ccc(N2C(=O)C(O)=C(C(C)=O)C2C2CCCCC2)cc1 (racemic) [Compound 77, 4-acetyl-5-cyclohexyl-1-(4-ethylphenyl)-3-hydroxy-1,5-dihydro-2H-pyrrol-2-one] |
| ≤ 5 | CC(=O)C1=C(S)C(=O)N(c2ccc(Cl)cc2F)C1C1CCCCC1 (racemic) [Compound 169, 4-acetyl-1-(4-chloro-2-fluorophenyl)-5-cyclohexyl-3-sulfanyl-1,5-dihydro-2H-pyrrol-2-one] |
